Usually Ki stands for the dissociation constant of the complex between target and ligand, obtained from inhibition or displacement.

The target of the experiment is T1, NDH-2 from S. aureus (SaNDH2, type 2 NADH:quinone oxidoreductase) (Staphylococcus aureus, UniProt Q2FZV7).
T1 construct: gene SAOUHSC_00878; recombinant NDH-2
The experiment in a line: steady-state NADH oxidation assay at […] nm with DMN as electron acceptor, […] enzyme. The class given is biochemical.

T1 sequence (Q2FZV7 whole entry): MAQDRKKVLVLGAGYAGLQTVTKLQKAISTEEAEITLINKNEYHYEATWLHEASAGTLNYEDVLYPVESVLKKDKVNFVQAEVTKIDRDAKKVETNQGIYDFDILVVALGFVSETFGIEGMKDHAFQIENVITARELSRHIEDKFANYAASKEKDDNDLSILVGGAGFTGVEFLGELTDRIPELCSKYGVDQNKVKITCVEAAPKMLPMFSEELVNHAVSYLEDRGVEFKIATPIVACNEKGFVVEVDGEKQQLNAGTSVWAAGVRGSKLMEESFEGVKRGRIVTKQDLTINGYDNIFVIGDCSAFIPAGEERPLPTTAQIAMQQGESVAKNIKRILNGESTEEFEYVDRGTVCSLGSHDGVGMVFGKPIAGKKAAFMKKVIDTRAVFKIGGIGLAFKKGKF

In turn, `COc1ccc2nc(C)ccc2c1` [compound 15] displayed a Ki of 8.9 ± 1 µM.

Values taken from PMC6017605, “In Silico Discovery of a Substituted 6-Methoxy-quinaldine with Leishmanicidal Activity in Leishmania infantum” (Molecules, 2018).
